PubChem BioAssay (NCI)
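Cells were grown in 96-well plates and exposed to each compound for 48 hours at five concentrations; endpoints were interpolated linearly between bracketing concentrations, or set to the highest concentration if not reached. GI50: concentration for 50% inhibition of growth. TGI marks complete inhibition of growth.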

Experiments:
Test in all cases: NCI anticancer screen, dose series, 48 h
786-0 renal = tested on: 786-0 renal
A498 renal = tested on: A498 renal
A549 NSCLC = tested on: A549 NSCLC
ACHN renal = tested on: ACHN renal
BT-549 breast = tested on: BT-549 breast
CCRF-CEM leukemia = tested on: CCRF-CEM leukemia
COLO 205 colon = tested on: COLO 205 colon
DU-145 prostate = tested on: DU-145 prostate
EKVX NSCLC = tested on: EKVX NSCLC
HCC-2998 colon = tested on: HCC-2998 colon
HCT-116 colon = tested on: HCT-116 colon
HCT-15 colon = tested on: HCT-15 colon
HL-60(TB) leukemia = tested on: HL-60(TB) leukemia
HOP-62 NSCLC = tested on: HOP-62 NSCLC
HOP-92 NSCLC = tested on: HOP-92 NSCLC
HS 578T breast = tested on: HS 578T breast
HT29 colon = tested on: HT29 colon
IGROV1 ovarian = tested on: IGROV1 ovarian
K-562 leukemia = tested on: K-562 leukemia
KM12 colon = tested on: KM12 colon
LOX IMVI melanoma = tested on: LOX IMVI melanoma
M14 melanoma = tested on: M14 melanoma
MALME-3M melanoma = tested on: MALME-3M melanoma
MCF7 breast = tested on: MCF7 breast
MDA-MB-231 breast = tested on: MDA-MB-231 breast
MDA-MB-435 = tested on: MDA-MB-435
MDA-MB-468 breast = tested on: MDA-MB-468 breast
MOLT-4 leukemia = tested on: MOLT-4 leukemia
NCI-H226 lung = tested on: NCI-H226 lung
NCI-H23 lung = tested on: NCI-H23 lung
NCI-H460 lung = tested on: NCI-H460 lung
NCI-H522 lung = tested on: NCI-H522 lung
OVCAR-3 ovarian = tested on: OVCAR-3 ovarian
OVCAR-4 ovarian = tested on: OVCAR-4 ovarian
OVCAR-5 ovarian = tested on: OVCAR-5 ovarian
OVCAR-8 ovarian = tested on: OVCAR-8 ovarian
PC-3 prostate = tested on: PC-3 prostate
RPMI-8226 leukemia = tested on: RPMI-8226 leukemia
RXF 393 renal = tested on: RXF 393 renal
SF-268 CNS = tested on: SF-268 CNS
SF-295 CNS = tested on: SF-295 CNS
SF-539 CNS = tested on: SF-539 CNS
SK-MEL-2 melanoma = tested on: SK-MEL-2 melanoma
SK-MEL-28 melanoma = tested on: SK-MEL-28 melanoma
SK-MEL-5 melanoma = tested on: SK-MEL-5 melanoma
SK-OV-3 ovarian = tested on: SK-OV-3 ovarian
SN12C renal = tested on: SN12C renal
SNB-19 CNS = tested on: SNB-19 CNS
SNB-75 CNS = tested on: SNB-75 CNS
SR leukemia = tested on: SR leukemia
T-47D breast = tested on: T-47D breast
TK-10 renal = tested on: TK-10 renal
U251 CNS = tested on: U251 CNS
UACC-257 melanoma = tested on: UACC-257 melanoma
UACC-62 melanoma = tested on: UACC-62 melanoma
UO-31 renal = tested on: UO-31 renal

Molecule `CN(C)C(=O)c1cc(-c2ccc3ncnc(N4CCc5cc(F)c(Cl)cc54)c3c2)cnc1N` has a GI50 (786-0 renal) of 129 nM, a TGI (786-0 renal) of 1430 nM and a GI50 (A498 renal) of 127 nM. The TGI (A498 renal) was 459 nM, the GI50 (A549 NSCLC) was 113 nM and the TGI (A549 NSCLC) was 1490 nM. For the same molecule, the GI50 (ACHN renal) was 217 nM, the TGI (ACHN renal) was 3220 nM and the GI50 (BT-549 breast) was 74.7 nM. It also gave a TGI (BT-549 breast) of 437 nM, a GI50 (CCRF-CEM leukemia) of 137 nM and a GI50 (COLO 205 colon) of 225 nM. The TGI (COLO 205 colon) was 540 nM, the GI50 (DU-145 prostate) was 95 nM and the TGI (DU-145 prostate) was greater than 100000 nM. For the same molecule, the GI50 (EKVX NSCLC) was 131 nM, the TGI (EKVX NSCLC) was 741 nM and the GI50 (HCC-2998 colon) was 165 nM. For the same molecule, the TGI (HCC-2998 colon) was 1030 nM, the GI50 (HCT-116 colon) was 111 nM and the TGI (HCT-116 colon) was 296 nM. For the same molecule, the GI50 (HCT-15 colon) was 127 nM, the TGI (HCT-15 colon) was 1420 nM and the GI50 (HL-60(TB) leukemia) was 57.5 nM. It also gave a TGI (HL-60(TB) leukemia) of 682 nM, a GI50 (HOP-62 NSCLC) of 154 nM and a TGI (HOP-62 NSCLC) of 2310 nM. The GI50 (HOP-92 NSCLC) was 144 nM, the TGI (HOP-92 NSCLC) was 673 nM and the GI50 (HS 578T breast) was 30.9 nM. It also gave a TGI (HS 578T breast) of 437 nM, a GI50 (HT29 colon) of 141 nM and a TGI (HT29 colon) of 1580 nM. It also gave a GI50 (IGROV1 ovarian) of 30.1 nM, a TGI (IGROV1 ovarian) of 161 nM and a GI50 (K-562 leukemia) of 281 nM. The TGI (K-562 leukemia) was greater than 100000 nM, the GI50 (KM12 colon) was 243 nM and the TGI (KM12 colon) was 2070 nM. The GI50 (LOX IMVI melanoma) was 170 nM, the TGI (LOX IMVI melanoma) was 1170 nM and the GI50 (M14 melanoma) was 277 nM. For the same molecule, the GI50 (MALME-3M melanoma) was 45.5 nM, the TGI (MALME-3M melanoma) was 366 nM and the GI50 (MCF7 breast) was 32.2 nM. For the same molecule, the TGI (MCF7 breast) was 1310 nM, the GI50 (MDA-MB-231 breast) was 203 nM and the TGI (MDA-MB-231 breast) was 1520 nM. It also gave a GI50 (MDA-MB-435) of 187 nM, a TGI (MDA-MB-435) of 3180 nM and a GI50 (MDA-MB-468 breast) of 43 nM. For the same molecule, the TGI (MDA-MB-468 breast) was 178 nM, the GI50 (MOLT-4 leukemia) was 63.8 nM and the TGI (MOLT-4 leukemia) was 3950 nM. It also gave a GI50 (NCI-H226 lung) of 131 nM, a TGI (NCI-H226 lung) of 3370 nM and a GI50 (NCI-H23 lung) of 194 nM. For the same molecule, the TGI (NCI-H23 lung) was 2860 nM, the GI50 (NCI-H460 lung) was 161 nM and the TGI (NCI-H460 lung) was greater than 37300 nM. The GI50 (NCI-H522 lung) was 214 nM, the TGI (NCI-H522 lung) was 1510 nM and the GI50 (OVCAR-3 ovarian) was 128 nM. It also gave a TGI (OVCAR-3 ovarian) of 743 nM, a GI50 (OVCAR-4 ovarian) of 229 nM and a TGI (OVCAR-4 ovarian) of 11300 nM. The GI50 (OVCAR-5 ovarian) was 168 nM, the TGI (OVCAR-5 ovarian) was 2450 nM and the GI50 (OVCAR-8 ovarian) was 216 nM. It also gave a TGI (OVCAR-8 ovarian) of 7500 nM, a GI50 (PC-3 prostate) of 104 nM and a TGI (PC-3 prostate) of 7190 nM. The GI50 (RPMI-8226 leukemia) was 57.2 nM, the TGI (RPMI-8226 leukemia) was 419 nM and the GI50 (RXF 393 renal) was 37.9 nM. The TGI (RXF 393 renal) was 317 nM, the GI50 (SF-268 CNS) was 149 nM and the TGI (SF-268 CNS) was 4270 nM. The GI50 (SF-295 CNS) was 244 nM, the TGI (SF-295 CNS) was 1250 nM and the GI50 (SF-539 CNS) was 135 nM. The TGI (SF-539 CNS) was 700 nM, the GI50 (SK-MEL-2 melanoma) was 191 nM and the TGI (SK-MEL-2 melanoma) was 474 nM. For the same molecule, the GI50 (SK-MEL-28 melanoma) was 195 nM, the TGI (SK-MEL-28 melanoma) was 5180 nM and the GI50 (SK-MEL-5 melanoma) was 125 nM. The TGI (SK-MEL-5 melanoma) was 276 nM, the GI50 (SK-OV-3 ovarian) was 316 nM and the TGI (SK-OV-3 ovarian) was 1750 nM. It also gave a GI50 (SN12C renal) of 69.8 nM, a TGI (SN12C renal) of 3020 nM and a GI50 (SNB-19 CNS) of 276 nM. For the same molecule, the TGI (SNB-19 CNS) was 3440 nM, the GI50 (SNB-75 CNS) was 23 nM and the TGI (SNB-75 CNS) was 649 nM. For the same molecule, the GI50 (SR leukemia) was 76.5 nM, the TGI (SR leukemia) was 815 nM and the GI50 (T-47D breast) was 32.3 nM. For the same molecule, the TGI (T-47D breast) was 1430 nM, the GI50 (TK-10 renal) was 137 nM and the TGI (TK-10 renal) was 1210 nM. For the same molecule, the GI50 (U251 CNS) was 200 nM, the TGI (U251 CNS) was 2240 nM and the GI50 (UACC-257 melanoma) was 198 nM. It also gave a TGI (UACC-257 melanoma) of 3920 nM, a GI50 (UACC-62 melanoma) of 109 nM and a TGI (UACC-62 melanoma) of 440 nM. The GI50 (UO-31 renal) was 32.1 nM and the TGI (UO-31 renal) was 1860 nM.
